Results as given in ChEMBL document CHEMBL2074190, “Grapefruit juice activates P-glycoprotein-mediated drug transport” (Pharm Res, 1999).

Molecular target: ATP-dependent translocase ABCB1 (Homo sapiens, UniProt P08183)
Experiment: TP_TRANSPORTER: transepithelial transport (basal to apical) in MDR1-expressing MDCK cells
Assay type: functional, cell-based
Settings: dog

ATP-dependent translocase ABCB1, sequence (P08183 whole entry): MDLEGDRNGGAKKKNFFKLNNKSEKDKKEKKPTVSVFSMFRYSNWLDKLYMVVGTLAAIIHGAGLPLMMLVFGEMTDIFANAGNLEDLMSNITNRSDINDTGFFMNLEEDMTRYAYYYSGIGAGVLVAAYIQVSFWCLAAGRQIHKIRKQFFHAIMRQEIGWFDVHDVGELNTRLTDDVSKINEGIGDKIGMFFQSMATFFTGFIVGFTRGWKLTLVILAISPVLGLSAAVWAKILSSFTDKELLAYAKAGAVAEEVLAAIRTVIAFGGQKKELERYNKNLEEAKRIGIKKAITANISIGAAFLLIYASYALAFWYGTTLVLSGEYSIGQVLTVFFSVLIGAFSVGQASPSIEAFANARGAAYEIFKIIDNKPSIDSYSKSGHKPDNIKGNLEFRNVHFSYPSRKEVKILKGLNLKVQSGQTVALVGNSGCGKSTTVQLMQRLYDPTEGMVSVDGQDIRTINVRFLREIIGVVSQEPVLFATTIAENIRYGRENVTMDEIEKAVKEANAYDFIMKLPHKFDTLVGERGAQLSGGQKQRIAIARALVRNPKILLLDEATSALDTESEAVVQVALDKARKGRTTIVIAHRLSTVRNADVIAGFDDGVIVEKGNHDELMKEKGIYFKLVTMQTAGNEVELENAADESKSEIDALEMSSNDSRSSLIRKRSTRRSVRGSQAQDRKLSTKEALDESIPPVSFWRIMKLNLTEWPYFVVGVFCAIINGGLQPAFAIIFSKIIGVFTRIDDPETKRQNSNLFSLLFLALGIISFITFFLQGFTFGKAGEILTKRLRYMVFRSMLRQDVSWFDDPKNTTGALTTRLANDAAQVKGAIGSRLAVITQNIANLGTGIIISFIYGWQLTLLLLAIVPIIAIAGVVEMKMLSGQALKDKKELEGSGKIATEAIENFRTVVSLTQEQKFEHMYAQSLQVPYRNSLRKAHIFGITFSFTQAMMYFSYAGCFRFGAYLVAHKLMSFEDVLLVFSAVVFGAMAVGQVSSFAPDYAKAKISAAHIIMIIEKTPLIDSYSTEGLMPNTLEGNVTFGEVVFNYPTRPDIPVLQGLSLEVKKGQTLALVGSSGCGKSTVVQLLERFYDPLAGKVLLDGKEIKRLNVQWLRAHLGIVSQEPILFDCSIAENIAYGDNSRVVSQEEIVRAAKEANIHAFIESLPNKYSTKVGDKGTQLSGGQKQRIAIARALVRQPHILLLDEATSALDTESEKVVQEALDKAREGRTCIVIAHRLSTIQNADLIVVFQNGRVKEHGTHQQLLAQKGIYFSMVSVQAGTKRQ

SMILES	Activity
C[C@H]1O[C@@H](O[C@H]2[C@@H](O)C[C@H](O[C@H]3[C@@H](O)C[C@H](O[C@H]4CC[C@@]5(C)[C@H](CC[C@@H]6[C@@H]5C[C@@H](O)[C@]5(C)[C@@H](C7=CC(=O)OC7)CC[C@]65O)C4)O[C@@H]3C)O[C@@H]2C)C[C@H](O)[C@@H]1O [DIGOXIN]	substrate [+]
CC(C)(C(=O)O)c1ccc(C(O)CCCN2CCC(C(O)(c3ccccc3)c3ccccc3)CC2)cc1 (configuration not stated) [FEXOFENADINE]	substrate [+]
